# Laboratory results reported in paper PMC11684667 (Molecular cell, 2023).
# Non-standard residues stand in square brackets, D forms with d. No end group written: not given here. pS = N[C@@H](COP(=O)(O)O)C(=O)O
# T1: Human CK1δ catalytic domain (residues 1–294) (human, UniProt P48730 1-294)
# T1 sequence: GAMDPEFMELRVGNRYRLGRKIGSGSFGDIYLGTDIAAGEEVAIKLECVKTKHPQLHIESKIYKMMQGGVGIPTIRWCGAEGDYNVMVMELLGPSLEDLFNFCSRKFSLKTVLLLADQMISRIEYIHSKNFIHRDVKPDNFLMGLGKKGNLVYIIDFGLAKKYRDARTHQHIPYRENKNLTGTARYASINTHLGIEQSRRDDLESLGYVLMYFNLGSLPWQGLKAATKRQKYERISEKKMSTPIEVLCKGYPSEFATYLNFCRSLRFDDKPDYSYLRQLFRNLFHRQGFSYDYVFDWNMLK
# What was measured:
# CK1δ ΔC = assay: NMR kinase assay monitoring priming phosphorylation at S662; format: biochemical, human; details: 3-hr real-time NMR kinase assay, 0.2 mM 15N-FASP, 2.5 mM ATP, 1 µM CK1δ ΔC, 25°C, SOFAST HMQC
# [1] = target: T1, Human CK1δ catalytic domain (residues …); assay: crystal structure
molecule,measurement,setting,value
"WT FASP: wild-type recombinant FASP peptide (residues 645–687) from human PER2 (GAMDPEFWRKKKTGVGTHLTSLALPGKAESVASLTSQCSYSSTIVHVGDKKPQPE; left off: His-NusA, N-terminal, cleaved)","fraction of primed FASP (pS662), completion of priming",CK1δ ΔC,approximately 50%
GKAE[pS]VA[pS]LT[pS]QC[pS]YA [human PER2 4pFASP peptide],binding result,[1],binds
